# ChEMBL document CHEMBL3593229, “Identification of a potent 5-phenyl-thiazol-2-ylamine-based inhibitor of FLT3 with activity against drug resistance-conferring point mutations” (Eur J Med Chem, 2015)
# Molecular target: T1, Receptor-type tyrosine-protein kinase FLT3 (Homo sapiens, UniProt P36888)
# T1 sequence (P36888 whole entry): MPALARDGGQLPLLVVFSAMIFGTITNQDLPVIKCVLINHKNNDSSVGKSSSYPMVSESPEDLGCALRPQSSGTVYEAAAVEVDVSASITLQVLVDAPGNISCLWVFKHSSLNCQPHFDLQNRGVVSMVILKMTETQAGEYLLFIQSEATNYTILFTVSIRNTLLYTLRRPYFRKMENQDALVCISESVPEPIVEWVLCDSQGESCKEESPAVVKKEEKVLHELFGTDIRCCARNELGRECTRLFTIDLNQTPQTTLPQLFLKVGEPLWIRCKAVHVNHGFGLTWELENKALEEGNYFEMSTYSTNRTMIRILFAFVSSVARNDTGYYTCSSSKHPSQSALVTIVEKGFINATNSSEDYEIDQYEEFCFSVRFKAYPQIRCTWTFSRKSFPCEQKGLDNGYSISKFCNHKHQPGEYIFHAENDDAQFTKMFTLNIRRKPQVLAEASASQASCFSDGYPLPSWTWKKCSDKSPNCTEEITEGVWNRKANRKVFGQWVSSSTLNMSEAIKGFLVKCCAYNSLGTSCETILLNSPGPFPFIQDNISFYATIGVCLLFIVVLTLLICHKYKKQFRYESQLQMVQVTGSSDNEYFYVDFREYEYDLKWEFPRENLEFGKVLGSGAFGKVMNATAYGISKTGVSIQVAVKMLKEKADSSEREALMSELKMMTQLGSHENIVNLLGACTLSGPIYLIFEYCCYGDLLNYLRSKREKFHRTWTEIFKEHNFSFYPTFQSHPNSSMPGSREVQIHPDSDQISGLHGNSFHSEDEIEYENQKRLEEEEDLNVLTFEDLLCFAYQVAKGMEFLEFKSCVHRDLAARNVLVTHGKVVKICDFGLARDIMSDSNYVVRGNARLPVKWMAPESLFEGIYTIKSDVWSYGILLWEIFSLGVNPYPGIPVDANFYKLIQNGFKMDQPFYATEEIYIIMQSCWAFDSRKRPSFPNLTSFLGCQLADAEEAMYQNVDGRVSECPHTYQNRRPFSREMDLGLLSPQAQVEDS
# Assay: biochemical
# Type: cell-based, Sf9
# Details: not given
row,SMILES,IC50 [nM]
1,CCN1CCN(c2cc(Nc3ncc(-c4ccc(NC(=O)Nc5ccc(Cl)cc5)cc4)s3)nc(C)n2)CC1,320
2,CCc1cc(NC(=O)Nc2ccc(-c3cnc(Nc4cc(N5CCN(C)CC5)nc(C)n4)s3)cc2)no1,49
3,CCN1CCN(c2cc(Nc3ncc(-c4ccc(NC(=O)OCc5ccccc5)cc4)s3)nc(C)n2)CC1,83
4,Cc1nc(Nc2ncc(-c3ccc(NC(=O)Nc4ccccc4)cc3)s2)cc(N2CCC(N)CC2)n1,73
5,CCN1CCN(c2cc(Nc3ncc(-c4ccc(NC(=O)Nc5cc(C6CC6)on5)cc4)s3)nc(C)n2)CC1,33
6,CCCCc1cc(NC(=O)Nc2ccc(-c3cnc(Nc4cc(N5CCN(C)CC5)nc(C)n4)s3)cc2)no1,22
7,CCN1CCN(c2cc(Nc3ncc(-c4ccc(NC(=O)c5ccccc5)cc4)s3)nc(C)n2)CC1,850
8,Cc1cc(NC(=O)Nc2ccc(-c3cnc(NC(=O)c4ccc(OCCN5CCOCC5)cc4)s3)cc2)no1,580
9,Cc1nc(Nc2ncc(-c3ccc(NC(=O)Nc4ccccc4)cc3)s2)cc(N2CCN(C)CC2)n1,79
10,Cc1nc(Nc2ncc(-c3ccc(NC(=O)Nc4cccc(Cl)c4)cc3)s2)cc(N2CCNCC2)n1,20
11,Cc1nc(Nc2ncc(-c3ccc(NC(=O)Nc4cc(C)on4)cc3)s2)cc(N2CCN(C)CC2)n1,10
12,CCN1CCN(c2cc(Nc3ncc(-c4ccc(NS(=O)(=O)c5ccccc5)cc4)s3)nc(C)n2)CC1,520

# System: not listed separately
# Assay: AUC (0 to infinity) in Sprague-Dawley rat at 10 mg/kg, po
# Type: ADME, organism-based
# Design: dose 10 mg/kg, time infinity, route oral
# Details: in vivo
row,SMILES,AUC(0-inf) [ng·h/mL]
1,CCc1cc(NC(=O)Nc2ccc(-c3cnc(Nc4cc(N5CCN(C)CC5)nc(C)n4)s3)cc2)no1,632
2,CCN1CCN(c2cc(Nc3ncc(-c4ccc(NC(=O)OCc5ccccc5)cc4)s3)nc(C)n2)CC1,66
3,Cc1nc(Nc2ncc(-c3ccc(NC(=O)Nc4cc(C)on4)cc3)s2)cc(N2CCN(C)CC2)n1,313

# System: not listed separately
# Assay: Oral bioavailability in Sprague-Dawley rat at 10 mg/kg
# Type: ADME, organism-based
# Details: in vivo
row,SMILES,bioavailability [%]
1,CCc1cc(NC(=O)Nc2ccc(-c3cnc(Nc4cc(N5CCN(C)CC5)nc(C)n4)s3)cc2)no1,18
2,Cc1nc(Nc2ncc(-c3ccc(NC(=O)Nc4cc(C)on4)cc3)s2)cc(N2CCN(C)CC2)n1,10

# System: Receptor-type tyrosine-protein kinase FLT3 (Homo sapiens), P36888 [UNDEFINED MUTATION]
# Assay: not given
# Details: MOLM-13
row,SMILES,GI50 [nM]
1,CCN1CCN(c2cc(Nc3ncc(-c4ccc(NC(=O)Nc5ccc(Cl)cc5)cc4)s3)nc(C)n2)CC1,9
2,CCc1cc(NC(=O)Nc2ccc(-c3cnc(Nc4cc(N5CCN(C)CC5)nc(C)n4)s3)cc2)no1,3
3,CCN1CCN(c2cc(Nc3ncc(-c4ccc(NC(=O)OCc5ccccc5)cc4)s3)nc(C)n2)CC1,3
4,Cc1nc(Nc2ncc(-c3ccc(NC(=O)Nc4ccccc4)cc3)s2)cc(N2CCC(N)CC2)n1,16
5,CCN1CCN(c2cc(Nc3ncc(-c4ccc(NC(=O)Nc5cc(C6CC6)on5)cc4)s3)nc(C)n2)CC1,2
6,CCCCc1cc(NC(=O)Nc2ccc(-c3cnc(Nc4cc(N5CCN(C)CC5)nc(C)n4)s3)cc2)no1,14
7,CCN1CCN(c2cc(Nc3ncc(-c4ccc(NC(=O)c5ccccc5)cc4)s3)nc(C)n2)CC1,19
8,Cc1cc(NC(=O)Nc2ccc(-c3cnc(NC(=O)c4ccc(OCCN5CCOCC5)cc4)s3)cc2)no1,210
9,Cc1nc(Nc2ncc(-c3ccc(NC(=O)Nc4ccccc4)cc3)s2)cc(N2CCN(C)CC2)n1,24
10,Cc1nc(Nc2ncc(-c3ccc(NC(=O)Nc4cccc(Cl)c4)cc3)s2)cc(N2CCNCC2)n1,24
11,CCc1cc(NC(=O)Nc2ccc(-c3cnc(Nc4cc(N5CCC(N)C5)nc(C)n4)s3)cc2)no1 (centres undefined),3
12,Cc1nc(Nc2ncc(-c3ccc(NC(=O)Nc4cc(C)on4)cc3)s2)cc(N2CCN(C)CC2)n1,1
13,CCN1CCN(c2cc(Nc3ncc(-c4ccc(NS(=O)(=O)c5ccccc5)cc4)s3)nc(C)n2)CC1,140

# Molecular target: T2, Aurora kinase A (Homo sapiens, UniProt O14965)
# T2 sequence (O14965 whole entry): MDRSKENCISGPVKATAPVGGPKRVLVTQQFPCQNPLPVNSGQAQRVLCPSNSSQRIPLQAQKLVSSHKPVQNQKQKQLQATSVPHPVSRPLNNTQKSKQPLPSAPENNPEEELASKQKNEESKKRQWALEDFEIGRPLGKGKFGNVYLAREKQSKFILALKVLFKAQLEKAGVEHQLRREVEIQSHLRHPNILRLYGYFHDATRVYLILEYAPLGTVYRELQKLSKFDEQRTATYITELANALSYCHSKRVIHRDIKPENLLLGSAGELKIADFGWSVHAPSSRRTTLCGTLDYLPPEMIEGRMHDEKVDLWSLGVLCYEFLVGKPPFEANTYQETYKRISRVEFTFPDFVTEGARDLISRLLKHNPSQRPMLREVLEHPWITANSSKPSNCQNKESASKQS
# Assay: biochemical
# Details: not given
row,SMILES,IC50 [nM]
1,CCN1CCN(c2cc(Nc3ncc(-c4ccc(NC(=O)Nc5ccc(Cl)cc5)cc4)s3)nc(C)n2)CC1,95
2,CCc1cc(NC(=O)Nc2ccc(-c3cnc(Nc4cc(N5CCN(C)CC5)nc(C)n4)s3)cc2)no1,41
3,CCN1CCN(c2cc(Nc3ncc(-c4ccc(NC(=O)OCc5ccccc5)cc4)s3)nc(C)n2)CC1,320
4,Cc1nc(Nc2ncc(-c3ccc(NC(=O)Nc4ccccc4)cc3)s2)cc(N2CCC(N)CC2)n1,150
5,CCN1CCN(c2cc(Nc3ncc(-c4ccc(NC(=O)Nc5cc(C6CC6)on5)cc4)s3)nc(C)n2)CC1,36
6,CCCCc1cc(NC(=O)Nc2ccc(-c3cnc(Nc4cc(N5CCN(C)CC5)nc(C)n4)s3)cc2)no1,38
7,CCN1CCN(c2cc(Nc3ncc(-c4ccc(NC(=O)c5ccccc5)cc4)s3)nc(C)n2)CC1,140
8,Cc1cc(NC(=O)Nc2ccc(-c3cnc(NC(=O)c4ccc(OCCN5CCOCC5)cc4)s3)cc2)no1,25
9,Cc1nc(Nc2ncc(-c3ccc(NC(=O)Nc4ccccc4)cc3)s2)cc(N2CCN(C)CC2)n1,> 10000
10,Cc1nc(Nc2ncc(-c3ccc(NC(=O)Nc4cccc(Cl)c4)cc3)s2)cc(N2CCNCC2)n1,270
11,Cc1nc(Nc2ncc(-c3ccc(NC(=O)Nc4cc(C)on4)cc3)s2)cc(N2CCN(C)CC2)n1,56
12,CCN1CCN(c2cc(Nc3ncc(-c4ccc(NS(=O)(=O)c5ccccc5)cc4)s3)nc(C)n2)CC1,43

# Molecular target: Vascular endothelial growth factor receptor 2 (Homo sapiens, UniProt P35968)
# Assay: biochemical
# Type: cell-based, Sf9
# Details: not given
# Vascular endothelial growth factor receptor 2, sequence (P35968 whole entry): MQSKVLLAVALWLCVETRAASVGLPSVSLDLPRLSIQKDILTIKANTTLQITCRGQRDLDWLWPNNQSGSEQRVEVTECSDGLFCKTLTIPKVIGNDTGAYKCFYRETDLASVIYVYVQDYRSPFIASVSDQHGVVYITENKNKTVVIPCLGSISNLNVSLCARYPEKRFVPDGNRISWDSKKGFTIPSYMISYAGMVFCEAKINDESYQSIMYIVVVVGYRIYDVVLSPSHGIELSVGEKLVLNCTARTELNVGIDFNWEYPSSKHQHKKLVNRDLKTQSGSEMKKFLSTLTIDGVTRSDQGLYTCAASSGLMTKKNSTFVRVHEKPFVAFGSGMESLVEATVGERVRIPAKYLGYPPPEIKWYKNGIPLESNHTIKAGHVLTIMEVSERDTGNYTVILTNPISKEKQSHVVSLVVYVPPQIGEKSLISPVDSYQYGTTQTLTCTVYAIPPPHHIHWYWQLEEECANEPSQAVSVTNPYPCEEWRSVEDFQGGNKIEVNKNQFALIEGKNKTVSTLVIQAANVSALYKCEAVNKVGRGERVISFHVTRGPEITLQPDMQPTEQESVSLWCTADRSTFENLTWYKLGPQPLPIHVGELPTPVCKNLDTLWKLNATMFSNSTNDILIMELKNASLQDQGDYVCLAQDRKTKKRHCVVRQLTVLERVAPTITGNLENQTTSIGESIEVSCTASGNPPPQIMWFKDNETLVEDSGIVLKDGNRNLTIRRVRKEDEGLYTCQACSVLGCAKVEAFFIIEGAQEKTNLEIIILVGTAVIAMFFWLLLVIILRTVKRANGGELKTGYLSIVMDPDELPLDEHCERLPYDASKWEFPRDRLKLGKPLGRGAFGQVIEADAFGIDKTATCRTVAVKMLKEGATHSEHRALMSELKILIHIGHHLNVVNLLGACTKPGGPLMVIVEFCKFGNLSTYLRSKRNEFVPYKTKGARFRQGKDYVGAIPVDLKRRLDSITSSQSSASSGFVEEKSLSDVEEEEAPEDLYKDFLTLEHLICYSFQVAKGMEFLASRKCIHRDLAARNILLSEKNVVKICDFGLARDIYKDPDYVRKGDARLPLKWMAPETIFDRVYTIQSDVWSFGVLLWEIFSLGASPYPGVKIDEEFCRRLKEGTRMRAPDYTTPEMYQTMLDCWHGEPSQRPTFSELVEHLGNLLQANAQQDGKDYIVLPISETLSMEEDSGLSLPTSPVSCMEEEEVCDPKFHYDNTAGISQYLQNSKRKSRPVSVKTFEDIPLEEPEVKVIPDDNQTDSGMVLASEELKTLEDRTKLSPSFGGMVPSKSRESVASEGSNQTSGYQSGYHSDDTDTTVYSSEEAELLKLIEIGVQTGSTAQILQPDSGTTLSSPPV
row,SMILES,IC50 [nM]
1,CCN1CCN(c2cc(Nc3ncc(-c4ccc(NC(=O)Nc5ccc(Cl)cc5)cc4)s3)nc(C)n2)CC1,43
2,CCc1cc(NC(=O)Nc2ccc(-c3cnc(Nc4cc(N5CCN(C)CC5)nc(C)n4)s3)cc2)no1,10
3,CCN1CCN(c2cc(Nc3ncc(-c4ccc(NC(=O)OCc5ccccc5)cc4)s3)nc(C)n2)CC1,120
4,Cc1nc(Nc2ncc(-c3ccc(NC(=O)Nc4ccccc4)cc3)s2)cc(N2CCC(N)CC2)n1,53
5,CCN1CCN(c2cc(Nc3ncc(-c4ccc(NC(=O)Nc5cc(C6CC6)on5)cc4)s3)nc(C)n2)CC1,15
6,CCCCc1cc(NC(=O)Nc2ccc(-c3cnc(Nc4cc(N5CCN(C)CC5)nc(C)n4)s3)cc2)no1,55
7,CCN1CCN(c2cc(Nc3ncc(-c4ccc(NC(=O)c5ccccc5)cc4)s3)nc(C)n2)CC1,> 1000
8,Cc1cc(NC(=O)Nc2ccc(-c3cnc(NC(=O)c4ccc(OCCN5CCOCC5)cc4)s3)cc2)no1,370
9,Cc1nc(Nc2ncc(-c3ccc(NC(=O)Nc4ccccc4)cc3)s2)cc(N2CCN(C)CC2)n1,160
10,Cc1nc(Nc2ncc(-c3ccc(NC(=O)Nc4cccc(Cl)c4)cc3)s2)cc(N2CCNCC2)n1,31
11,Cc1nc(Nc2ncc(-c3ccc(NC(=O)Nc4cc(C)on4)cc3)s2)cc(N2CCN(C)CC2)n1,15
12,CCN1CCN(c2cc(Nc3ncc(-c4ccc(NS(=O)(=O)c5ccccc5)cc4)s3)nc(C)n2)CC1,170
